How the values were obtained:
[1] = tested on: oxygen radical damage of β-phycoerythrin (β-PE) indicator protein; assay: Fast and slow Oxygen Radical Absorption Capacity (ORAC); type: biochemical; settings: for slow antioxidant activity, comparison in words: slow ORAC (50% of β-phycoerythrin survives)
Description: Ascorbic acid, free phenolic compounds and thiol compounds are fast acting antioxidants. The slow antioxidant activity is a measure of the net protection area under the quenching curve of β-phycoerythrin in the presence of an antioxidant, which inhibits free radical propagation to the extent that 50% of β-phycoerythrin survives. Flavonoids, carotenoids and polyphenols are slow acting antioxidants. Aloeresin A (purity 76.0%), Aloesin (95.2%), green tea extract and grape seed extract, respectively were dissolved in deionized water (5% (W/V) solution) and tested directly using the experiment procedures described by Cao et al. (1994) Free Radic. Biol. Med. 16:135-137 and Prior and Cao (1999) Proc. Soc. Exp. Biol. Med. 220:255-261.

[2] = tested on: oxygen radical damage of β-phycoerythrin (β-PE) indicator protein; assay: ORAC of a meta-berry fruit drink product with added aloeresin A; type: biochemical; settings: aloeresin A at a concentration of 5%; FIG. 7
Protocol: A fruit drink product obtained from Oasis Wellness Network was determined, using the methods described in Example 3, to have an ORAC value of 3,129/oz. Aloeresin A, containing 76.0% aloeresin A was added to 40 mL of the drink (lot #0612, exp. […] These samples were then tested for whole ORAC value relative to the product in the absence of aloeresin A. using the experiment procedures illustrated described by Cao et al. (1994) Free Radic. Biol. Med. 16:135-137 and Prior and Cao (1999) Proc. Soc. Exp. Biol. Med. 220:255-261).

[3] = tested on: oxygen radical damage of β-phycoerythrin (β-PE) indicator protein; assay: Oxygen Radical Absorption Capacity (ORAC) assay, whole ORAC; type: biochemical; settings: FIG. 4
Description: The Oxygen Radical Absorption Capacity (ORAC) assay is a method for measuring total serum antioxidant activity. (Cao et al. (1993) Free Rad. Biol. Med. 14:303-311). It can be used to quantitatively measure the total antioxidant capacity, as well as, qualitatively measure the levels of fast versus slow acting antioxidants in a blood serum sample. The assay utilizes the free radical sensitive fluorescent indicator protein β-phycoerythrin (β-PE) to monitor the effectiveness of various serum antioxidants in protecting β-PE from becoming damaged by free radicals. Assay results are quantitated by allowing the reaction to reach completion and then integrating the area under the kinetic curve relative to a blank reaction containing no antioxidant. The area under the curve is proportional to the concentration of all the antioxidants present in the sample. (DeLang and Glazer (1989) Analyt. Biochem. 177:300-306).
The chromones, Aloesin and Aloeresin A, were tested for Oxygen Radical Absorption Capacity (ORAC) relative to green tea extract which contains more than 50% total catechins and more than 25% epigallocatechingallate (EGCG) and grape seed extract which contains more than 95% total phenols. The ORAC assay measures the time-dependent decrease in the fluorescence of β-phycoerythrin (β-PE) indicator protein, resulting from oxygen radical damage. This assay provides a quantitative measure of the total antioxidant capacity to protect the free radical sensitive β-phycoerythrin. Each reaction was calibrated using the known standard Trolox, a water soluble vitamin E analogue. The ORAC value refers to the net protection area under the quenching curve of β-phycoerythrin in the presence of an antioxidant. The results of the assay are reported on the basis of 1 ORAC unit equals 1 μM of Trolox. Aloeresin A (purity 76.0%), aloesin (95.2%), green tea extract and grape seed extract were dissolved in deionized water (5% solution W/V) and tested directly using the experimental procedures described in Cao et al. (1994) Free Radic. Biol. Med. 16:135-137 and Prior and Cao (1999) Proc. Soc. […]

[4] = tested on: spontaneous lipid peroxidation reaction; assay: Lipid Peroxidation Inhibition Capacity (LPIC) assay, MDA by thiobarbituric acid reaction; type: biochemical; settings: for inhibition of lipid peroxidation: concentration 5 mg/mL in phosphate-saline buffer
Description: The Lipid Peroxidation Inhibition Capacity (LPIC) assay is a method for measuring the ability of a sample to inhibit the initiation and propagation of a spontaneous lipid peroxidation reaction. Lipid peroxidation represents the major mechanism of lipid destruction occurring in an organism. This reaction is also an important source of reactive oxygen species. In part, lipid peroxidation is controlled in vivo by:
Lipid Peroxidation Inhibition Capacity (LPIC) is a measure of the anti-oxidative ability of a sample to inhibit the initiation and propagation of a spontaneous lipid peroxidation reaction. Malonyldialdehyde (MDA) is one of the major by-products of lipid peroxidation and is commonly used as a means of measuring the extent of lipid peroxidation. MDA concentrations were measured using the thiobarbituric acid reaction. Aloeresin A (purity 76.0%), vitamin C and cc-tocopherol were dissolved in a phosphate-saline buffer at four different concentrations (5 mg/mL, 10 mg/mL, 25 mg/mL and 50 mg/mL) and then tested directly using the experiment procedures described by Stocks et al. (1974) Clinical Sci. Mol. 47:215-222 and Yu and Lee, U.S. Pat. No. 5,939,395.

tyrosinase = settings: cited from earlier work; for type of tyrosinase inhibition (Lineweaver Burk diagram): Yagi et al. (1987)

CC(=O)Cc1cc(=O)c2c(C)cc(O)c([C@@H]3O[C@H](CO)[C@@H](O)[C@H](O)[C@H]3OC(=O)/C=C/c3ccc(O)cc3)c2o1 [aloeresin A]
fast antioxidant potency relative to the other three compositions ([1]; fast ORAC (95% of β-phycoerythrin survives), 5% (W/V) solution, FIG. 5): four times more potent as a fast antioxidant | slow antioxidant activity, comparison in words ([1]; 5% (W/V) solution, FIG. 5): superior antioxidant relative to grape seed and green tea extracts | increase of ORAC value of a multiple berry fruit drink [2]: 31.3% | whole ORAC value higher than grape seed extract ([3]; 5% (W/V) solution, difference to grape seed extract): 299 | whole ORAC value higher than green tea extract ([3]; 5% (W/V) solution, difference to green tea extract): 33 | inhibition of lipid peroxidation [4]: 30.7% | lipid peroxidation inhibition capacity (LPIC), comparison in words ([4]; concentrations of 10 mg/mL to 50 mg/mL, vs α-tocopherol and vitamin C, FIG. 6): stronger antioxidant than either α-tocopherol or vitamin C

CC(=O)Cc1cc(=O)c2c(C)cc(O)c([C@@H]3O[C@H](CO)[C@@H](O)[C@H](O)[C@H]3O)c2o1 [aloesin]
more active than grape seed extract at 50% ORAC conditions ([1]; 50% ORAC conditions, relative to grape seed extract): more than six times more active | more active than green tea extract at 50% ORAC conditions ([1]; 50% ORAC conditions, relative to green tea extract): over 70% | slow antioxidant activity, comparison in words ([1]; 5% (W/V) solution, FIG. 5): more potent as a slow acting antioxidant | type of tyrosinase inhibition (Lineweaver Burk diagram) (tyrosinase): competitive inhibitor | IC50 (tyrosinase; substrate L-DOPA, read-out: concentration for 50% inhibition of tyrosinase activity): 200 µM | whole ORAC value, comparison in words ([3]; 5% (W/V) solution in deionized water, vs aloeresin A, green tea and grape seed extracts): much higher whole ORAC value than aloeresin A and the standardized green tea and grape seed extracts

COc1cc(/C=C/C(=O)O[C@@H]2[C@@H](O)[C@H](O)[C@@H](CO)O[C@H]2c2c(O)cc(C)c3c(=O)cc(CC(C)=O)oc23)ccc1O [2″-feruloylaloesin, 2″-O-feruloylaloesin, reference compound]
type of tyrosinase inhibition (Lineweaver Burk diagram) (tyrosinase): non-competitive inhibitor

Cc1c(C)c2c(c(C)c1O)CC[C@@](C)(CCC[C@H](C)CCC[C@H](C)CCCC(C)C)O2 [α-tocopherol, reference compound]
inhibition of lipid peroxidation [4]: below 10%

— US8110555B2, “7-hydroxy chromones as potent antioxidants” (Unigen, Inc., priority 2002, dated 2012)
